From patent US4888414A, “Insulin-binding peptides and uses thereof” (Board of Regents, University of Texas System, priority 1987, dated 1989)
Where no end group is shown, it is not given here.

Legend:
[1] = biological target: T1, insulin (Homo sapiens, UniProt P01308); assay: Binding of 125I-insulin to various immobilized peptides; settings: peptide immobilized from 5 ug/ml; 2 nM 125I-insulin
Method: The binding specificity of iodinated insulin for immobilized peptides was determined. Peptides of various sequences and sizes were immobilized in microtitre wells, as described in Example 1. The peptides utilized were IBP (CVEEAS) and a series of control peptide having the following designations and amino acid sequences: S28, TTHYQKG; S79, AQGHRPQDEG; S81, YGSLPQKAQGHRPQDEG; S82, THYGSLPQKAQGHRPQDEG; and EAE, FSWGAEGQR.
Peptides were dissolved in buffer at a concentration of 5 ug/ml, and immobilized in the wells of the microtitre plate. The immobilized peptides were then incubated with 2 nM ^125 I-insulin in the absence or presence of 3 uM unlabeled insulin, as described above. The specific binding of insulin to immobilized peptide is indicated, alone with the binding as a percentage of the binding of insulin to immobilized IBP. The peptides utilized are indicated on the abcissa. The respective relative binding of insulin (shown in FIG. 5) was IBP-100%, S28-0.3%, S79-1.5%, S81-0.6%, S82-0.2% and EAE-0.3%.

[2] = Binding of iodinated polypeptide hormones to immobilized IBP; settings: 2 nM iodinated hormone; room temperature 3 h
Method: The specificity of the binding of IBP to insulin was determined by incubating iodinated calcitonin, parathyroid hormone or atrial naturiuretic peptide with immobilized IBP. The binding of insulin to IBP appears to be a specific process. The specific binding of the low molecular weight polypeptide hormones calcitonin, parathyroid hormone and atrial naturiuretic peptide is less than 1% of the level of the specific binding of insulin (Ins) to IBP. The insulin-binding peptide was immobilized in the bottom of 96-well microtitre plates. To the wells were then added 2 nM iodinated polypeptide hormones in the absence or presence of at least a 1000-fold excess of unlabeled hormone. Following incubation at room temperature for 3 h, the wells were washed, excised from the plate and ^125 I measured as described above. The specific binding of hormone to the wells is indicated, along with the binding as a percentage of the binding of insulin to the wells. The polypeptide hormones utilized are indicated on the abcissa: Cal, calcitonin; PTH, parathyroid hormone; ANP, atrial naturiuretic peptide; Ins, insulin.

[3] = biological target: T1, insulin; assay: Binding of 125I-insulin to immobilized IBP in microtitre wells
Method: Insulin Binding Peptide, synthesized by OCS Laboratories, Inc., Denton, Tex., was immobilized in the wells of flexible, U-bottom 96-well polyvinyl chloride microtitre plates (Falcon, Becton Dickinson Labware). To each well was added 100 ul of the peptide (5 ug/ml in 0.1 M sodium carbonate, pH 9.6). The peptide was allowed to adsorb to the well overnight at 4° C. Unreacted sites in the wells were blocked with 150 ul of 1% ovalbumin (Sigma Chemical Co.) in 0.1M sodium carbonate, pH 9.6, for 1 h at room temperature. The wells were washed two times with phosphate-buffered saline (PBS) containing 0.1% BSA (Fraction V, Sigma Chemical Co.), and then incubated with ^125 I-insulin in PBS, 0.1% BSA, for 3 h at room temperature. The wells were then washed 3 times with PBS-0.1% BSA, and were then excised from the plate and counted in a gamma counter. Total binding of insulin to the IBP was determined with iodinated insulin alone. Nonspecific binding was determined in the presence of radiolabeled insulin plus 3 uM unlabeled insulin. Specific binding was calculated as the difference between total and nonspecific binding. All values are reported as specific binding, unless otherwise indicated. All determinations (both total and nonspecific) were performed in triplicate. Insulin was iodinated by the method of Chloramine T, as previously described (Gavin et al., Proc. Nat. Acad. Sci., Vol. 71, p. 84-88 (1974)).
The peptide was immobilized in the bottom of 96-well microtitre plates, and at zero time, 2 nM ^125 I-insulin, in the absence or presence of 3 uM unlabeled insulin, was added to each of the wells. At the indicated times, the wells were washed with cold PBS, the washed wells were cut from the dish and counted for radioactivity. The indicated data points are average values of specifically bound insulin, and the error bars indicate the range of the data. At 25° C., the binding attained equilibrium within 1.5 h, with a half-time of approximately 20 min. At 4° C., the binding process is slightly slower, requiring approximately 2 h to attain an equilibrium level of binding.
The peptide was immobilized in the bottom of 96-well microtitre plates, and ^125 I-insulin, in the absence or presence of 3 uM unlabeled insulin, was added to the wells. Following incubation at 25° C. for 3 h, the wells were washed, cut from the dish, and counted, as described above. The indicated data points of FIG. 2 are average values of specifically bound insulin, the error bars indicate the range of the data.

T1 sequence (P01308 25-54 limits assumed, species assumed): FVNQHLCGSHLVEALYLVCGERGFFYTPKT
T1 sequence (P01308 90-110 partner limits assumed, species assumed): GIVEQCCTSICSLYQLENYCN

| Substance | relative binding of insulin to immobilized peptide, as percentage of binding to immobilized IBP [1] [%] | specific binding to IBP as percentage of the specific binding of insulin [2] | also measured |
| --- | --- | --- | --- |
| YGSLPQKAQGHRPQDEG [S81, YGSLPQKAQGHRPQDEG] | 0.6 |  |  |
| AQGHRPQDEG [S79, AQGHRPQDEG] | 1.5 |  |  |
| TTHYQKG [S28, TTHYQKG] | 0.3 |  |  |
| parathyroid hormone |  | less than 1% |  |
| FSWGAEGQR [EAE, FSWGAEGQR] | 0.3 |  |  |
| CVEEAS [IBP, NH2 -Cys-Val-Glu-Glu-Ala-Ser-COOH] |  |  | time to attain an equilibrium level of binding ([3]; 4° C., 2 nM 125I-insulin): approximately 2 h; half-time of binding ([3]; 25° C., 2 nM 125I-insulin): approximately 20 min; time for binding to attain equilibrium ([3]; 25° C., 2 nM 125I-insulin): ≤ 1.5 h; Kd ([3]; IBP immobilized on plastic surface, 125I-insulin, 25° C. for 3 h, read-out: Kd of insulin binding to immobilized IBP (Scatchard)): 3 nM |
| calcitonin |  | less than 1% |  |
| THYGSLPQKAQGHRPQDEG [S82, THYGSLPQKAQGHRPQDEG] | 0.2 |  |  |
| atrial naturiuretic peptide |  | less than 1% |  |
